Data as given in US11814648B2, “Functional oligodendrocytes derived from pluripotent stem cells and methods of making and using the same” (New York Stem Cell Foundation, Inc., priority 2014, dated 2023).

Tests used:
[1] = tested on: OLIG2-GFP knock-in hESC reporter line; test: Flow cytometric quantification of OLIG2-GFP expression under RA/SHH/SAG conditions; type: cell-based, human
Procedure: FIGS. 2A-2D show the requirement for RA and SHH to derive OLIG2^+ progenitor cells. […] RA at a concentration of 100 nM from day 0 results in the highest yield of GFP^+ cells. […] Negative: hESC line RUES1. […] Error bars are SEM (N=3). […] Only GFP^+ cells form spheres, providing enrichment to the GFP^+ population.
We used an OLIG2-GFP knock-in hESC reporter line (Liu et al., 2011) to track OLIG2^+ progenitors by live fluorescent imaging. First, we induced PAX6^+ cells using dual inhibition of SMAD signaling in adherent cultures. Chambers, S. M. et al., Nat Biotechnol. 27:275-80 (2009). Next, to mimic the embryonic spinal cord environment, we applied different concentrations of RA and/or SHH at various times and quantified OLIG2-GFP expression through flow cytometry (FIG. 2A).
At day 12, cells were detached and placed into low-attachment plates to promote their aggregation into spheres. The minimum number of cells required to form a sphere was at least 100 cells, and we noted that the majority of cells in the spheres were GFP^+. To investigate this further, we sorted day 12 cultures for GFP, and observed that only the GFP^+ cells formed aggregates (FIG. 2C).
At the day of differentiation induction (day 0), medium was switched to Neural Induction Medium, which is mTeSR Custom Medium (Stemcell Technologies) containing the small molecules SB431542 10 μM (Stemgent) and LDN193189 250 nM (Stemgent), as well as 100 nM all-trans-RA (Sigma-Aldrich; St. Louis, Mo.). mTeSR Custom Medium has the same composition as the commercially available mTeSR-1 medium but without five factors that sustain pluripotency, namely lithium chloride, GABA, pipecolic acid, bFGF, and TGFβ1 (Stemcell Technologies). […]
Cells were enzymatically harvested by ACCUTASE® treatment for 25 min at 37° C. to obtain a single cell suspension. Cells were then re-suspended in 100 μl of their respective medium containing the appropriate amount of either primary antibody or fluorescence-conjugated antibodies and were incubated on ice for 30 minutes shielded from light. […] Flow cytometry data were analyzed using BD FACSDiva™ software.

[2] = tested on: O4^+ cells; test: FACS-analysis for O4+ cells at day 75 of differentiation; type: cell-based, human; conditions: RA only vs RA and SAG in the first 12 days
Procedure: FIGS. 3A-3C show SHH and dual SMAD inhibition requirements for OLIG2^+ progenitors. […] Endogenous SHH levels are higher in the samples that were not exposed to SHH/SAG. Error bars are SEM (N=3). […] Negative Control: APC-conjugated secondary antibody only.
Spheres were plated on pO/L plates, as described above, in PDGF Medium at day 30, changing ⅔ of the PDGF Medium every other day until day 75 of differentiation. The appearance of O4^+ cells was assessed by live O4 staining from day 55 onwards (FIG. 6). At day 75, O4^+ OPCs could be isolated by FACS (FIG. 7I). Alternatively, for terminal oligodendrocyte differentiation (FIG. 7G-7H), cells were cultured in Glial Medium from day 75, changing ⅔ of the medium every 3 days for two weeks.
Cells were enzymatically harvested by ACCUTASE® treatment for 25 min at 37° C. to obtain a single cell suspension. Cells were then re-suspended in 100 μl of their respective medium containing the appropriate amount of either primary antibody or fluorescence-conjugated antibodies and were incubated on ice for 30 minutes shielded from light. When secondary antibodies were used, primary antibodies were washed with PBS and secondary antibodies were applied for 30 minutes on ice. […] Flow cytometry data were analyzed using BD FACSDiva™ software.

`CC1=C(/C=C/C(C)=C/C=C/C(C)=C/C(=O)O)C(C)(C)CCC1` [RA, all trans retinoic acid] was tested, and the “OLIG2^+ progenitors generated” value ([1]; 100 nM RA from the beginning of induction, no exogenous SHH, OLIG2-GFP flow cytometry, day 14) was 40.6% and the “Yield of GFP^+ cells under different RA and SHH conditions” value ([1]; RA 100 nM from day 0, day 14 of differentiation) was “highest yield”.

For `CN[C@H]1CC[C@H](N(Cc2cccc(-c3ccncc3)c2)C(=O)c2sc3ccccc3c2Cl)CC1` [SAG, 3-chloro-N-[(1r,4r)-4-(methylamino)cyclohexyl]-N-[3-(pyridin-4-yl)benzyl]benzo[b]thiophene-2-carboxamide], the “OLIG2^+ progenitors yield” value ([1]; SAG replacing recombinant human SHH from day 8, with 100 nM RA from day 0) was 70.1% and the “Decrease in the O4^+ population in cells not provided with SAG” value [2] was 56%.
